# Reference: paper PMC11783601, “Analogue-Sensitive Inhibition of Histone Demethylases Uncovers Member-Specific Function in Ribosomal Protein Synthesis” (Journal of the American Chemical Society, 2025)
# Key:
# MINA = molecular target: T1, MINA (Homo sapiens, UniProt Q8IUF8); assay: MALDI-based assay for MINA histidyl hydroxylation of peptide; type: biochemical; conditions: MALDI-TOF, peptide substrate
# T1 construct: we recombinantly expressed the catalytic domains of 12 wild type dioxygenases; His-TEV (N); host or cells: E. coli BL21 (DE3)
# Experimental: MALDI-based assay for C14orf169 (NO66) and MINA: To monitor the enzymatic activity of
# C14orf169 and MINA recombinant proteins, previous methods were utilized.10-11 Briefly, 10 µM
# each recombinant protein was incubated with 10 µM peptide substrate (NH2-
# Ascorbic Acid, 100 µM Iron (II), 50mM HEPES pH 7.5, and 200 µM L-Leu NOG or equivalent
# volume of water in 10 µL water. Aliquots were kept on ice for 10 minutes before addition of 200
# µM 2OG or equivalent volume of water. After 30-60 minutes incubation at 37 °C, 1 µL sample and
# 1 µL S-DHB matrix were spotted on a MALDI plate and monitored with Bruker FlexControl in
# the reflectron positive mode and analyzed on Bruker FlexAnalysis software. […]
# [1] = system: asKDM4 mutants (KDM4A-F185A, KDM4C-F187A, KDM4D-F189A and KDM4E-F186A); assay: Demethylation of extracted full-length histones, Western blot with H3K9me3 antibody; type: biochemical, human; conditions: histones extracted from HEK293T cells, 20 µM (Fig S19 legend)
# Experimental: We next tested the inhibitory potential of 6 against these proteins using H3K9me3 peptide substrate and analyzed it by MALDI-MS. […] We subsequently examined the ability of asKDM4 variants to demethylate full-length histones extracted from mammalian cells. HEK293T cells were cultured in the presence of 10 μM n-octyl IOX1, a broad-spectrum inhibitor of demethylases,[41],[42] to generate a hypermethylated proteome (Figure S19). The extracted histone was incubated with the as variants individually, each with or without 6, and the extent of demethylation was analyzed by Western blot using the H3K9me3-specific antibody. […]
# directly to ice and 2M Ammonium Acetate was added and left on ice for 5 minutes. […]
# The supernatant was transferred to a fresh 1.5 mL centrifuge tube, 132 µL of TCA was added dropwise to precipitate the histones and incubated on ice for 30 mins to 1.5 hr. […] 1 µL of histone extracts was loaded on a 15% gel with the BSA standards to quantify the amount of H3 for the assay. […]
# (NH4)2Fe(SO4)2, 2 mM L-ascorbic acid and 50 mM Tris pH 8.0 were incubated with or without 150 µM of L-Leu NOG for 5 minutes on ice, after which substrate (300 µM 2OG and 2 µg of Histone extract) was added to the tube. The assay was incubated at 37 °C for 1.5 hours, the samples were analyzed via western blotting using H3K9me3 specific antibody. […]
# T1 sequence (Q8IUF8 139-271 limits assumed): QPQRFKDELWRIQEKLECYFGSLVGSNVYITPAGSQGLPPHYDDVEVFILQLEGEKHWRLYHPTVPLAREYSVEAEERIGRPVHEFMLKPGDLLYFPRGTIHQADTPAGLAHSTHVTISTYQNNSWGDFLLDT
compound,measurement,setting,value
"CC(C)CC(NC(=O)C(=O)O)C(=O)O (stereo not drawn) [compound 6, N-oxalyl leucine]",inhibition of MINA,MINA,No inhibition
same,inhibition of demethylation of full-length histone H3 by asKDM4 mutants,[1],noticeably inhibited
same,inhibition of demethylation of full-length histone H3 by asKDM4 mutants,[1]; listed as NOL 6,inhibits the mutants
